In PubChem BioAssay AID1259407 (Chemical Carcinogenesis Research Information System (CCRIS), 2018):
Calls of active or inactive are those of the source. No rule for the calls is given here.

Tested on: CCRIS mutagenicity, Ames/micronucleus/aberration tests
Assay: CCRIS mutagenicity studies
[1] = Test System: AMES SALMONELLA TYPHIMURIUM, Strain/Indicator: TA98, Metabolic Activation: NONE, Method: STANDARD PLATE
[2] = Test System: AMES SALMONELLA TYPHIMURIUM, Strain/Indicator: TA100, Metabolic Activation: NONE, Method: STANDARD PLATE
[3] = Test System: AMES SALMONELLA TYPHIMURIUM, Strain/Indicator: TA100, Metabolic Activation: RAT, LIVER, S-9, AROCLOR 1254, Method: STANDARD PLATE
[4] = Test System: AMES SALMONELLA TYPHIMURIUM, Strain/Indicator: TA98, Metabolic Activation: NONE, Method: PREINCUBATION
[5] = Test System: AMES SALMONELLA TYPHIMURIUM, Strain/Indicator: TA100, Metabolic Activation: NONE, Method: PREINCUBATION
[6] = Test System: AMES SALMONELLA TYPHIMURIUM, Strain/Indicator: TA97, Metabolic Activation: NONE, Method: PREINCUBATION
[7] = Test System: AMES SALMONELLA TYPHIMURIUM, Strain/Indicator: TA1535, Metabolic Activation: NONE, Method: PREINCUBATION

FC(F)(Cl)Cl
mutagenic call (Test System: AMES SALMONELLA TYPHIMURIUM, Strain/Indicator: TA98, Metabolic Activation: NONE, Method: GAS EXPOSURE): inactive; negative
mutagenic call (Test System: AMES SALMONELLA TYPHIMURIUM, Strain/Indicator: TA98, Metabolic Activation: RAT LIVER S-9, PHENOBARBITAL AND BETA-NAPHTHOFLAVONE (40%), Method: GAS EXPOSURE): inactive; negative
mutagenic call (Test System: AMES SALMONELLA TYPHIMURIUM, Strain/Indicator: TA100, Metabolic Activation: NONE, Method: GAS EXPOSURE): inactive; negative
mutagenic call (Test System: AMES SALMONELLA TYPHIMURIUM, Strain/Indicator: TA100, Metabolic Activation: RAT LIVER S-9, PHENOBARBITAL AND BETA-NAPHTHOFLAVONE (40%), Method: GAS EXPOSURE): inactive; negative
mutagenic call (Test System: AMES SALMONELLA TYPHIMURIUM, Strain/Indicator: TA1535, Metabolic Activation: NONE, Method: GAS EXPOSURE): inactive; negative
mutagenic call (Test System: AMES SALMONELLA TYPHIMURIUM, Strain/Indicator: TA1535, Metabolic Activation: RAT LIVER S-9, PHENOBARBITAL AND BETA-NAPHTHOFLAVONE (40%), Method: GAS EXPOSURE): inactive; negative
mutagenic call (Test System: AMES SALMONELLA TYPHIMURIUM, Strain/Indicator: TA1537, Metabolic Activation: NONE, Method: GAS EXPOSURE): inactive; negative
mutagenic call (Test System: AMES SALMONELLA TYPHIMURIUM, Strain/Indicator: TA1537, Metabolic Activation: RAT LIVER S-9, PHENOBARBITAL AND BETA-NAPHTHOFLAVONE (40%), Method: GAS EXPOSURE): inactive; negative
mutagenic call (Test System: E.COLI, Strain/Indicator: WP2UVRA, Metabolic Activation: NONE, Method: GAS EXPOSURE): inactive; negative
mutagenic call (Test System: E.COLI, Strain/Indicator: WP2UVRA, Metabolic Activation: RAT LIVER S-9, PHENOBARBITAL AND BETA-NAPHTHOFLAVONE (40%), Method: GAS EXPOSURE): inactive; negative

O=[N+]([O-])c1ccc2ccc3cc4c(c5ccc1c2c35)C=CCC4
mutagenic call (Test System: AMES SALMONELLA TYPHIMURIUM, Strain/Indicator: TA98(1,8-DNP6), Metabolic Activation: NONE, Method: STANDARD PLATE): active; positive
mutagenic call (Test System: AMES SALMONELLA TYPHIMURIUM, Strain/Indicator: TA98(1,8-DNP6), Metabolic Activation: RAT, LIVER, S-9, AROCLOR 1254, Method: STANDARD PLATE): active; positive
mutagenic call (Test System: AMES SALMONELLA TYPHIMURIUM, Strain/Indicator: TA98(NR), Metabolic Activation: NONE, Method: STANDARD PLATE): active; positive
mutagenic call (Test System: AMES SALMONELLA TYPHIMURIUM, Strain/Indicator: TA98(NR), Metabolic Activation: RAT, LIVER, S-9, AROCLOR 1254, Method: STANDARD PLATE): active; positive
mutagenic call [1]: active; positive
mutagenic call (Test System: AMES SALMONELLA TYPHIMURIUM, Strain/Indicator: TA98, Metabolic Activation: RAT, LIVER, S-9, AROCLOR 1254, Method: STANDARD PLATE): active; positive
mutagenic call [2]: inactive; negative
mutagenic call [3]: active; positive

Cc1c2ccccc2c(C)c2c1c1c(c3ccccc32)N1
mutagenic call [4]: active; positive

CNC(=O)N(C)C(=O)ON
mutagenic call [1]: active; positive
mutagenic call [2]: active; positive

O=[N+]([O-])N(c1ccccn1)S(=O)(=O)c1ccccc1
mutagenic call [4]: inactive; negative
mutagenic call (Test System: AMES SALMONELLA TYPHIMURIUM, Strain/Indicator: TA98, Metabolic Activation: RAT, LIVER, S-9, AROCLOR 1254, Method: PREINCUBATION): inactive; negative
mutagenic call [5]: inactive; negative
mutagenic call (Test System: AMES SALMONELLA TYPHIMURIUM, Strain/Indicator: TA100, Metabolic Activation: RAT, LIVER, S-9, AROCLOR 1254, Method: PREINCUBATION): inactive; negative

Nc1ccc(S(=O)(=O)O)cc1
mutagenic call (Test System: AMES SALMONELLA TYPHIMURIUM, Strain/Indicator: TA97, Metabolic Activation: HAMSTER, LIVER, S-9, AROCLOR 1254 (10 OR 30%), Method: PREINCUBATION): inactive; negative
mutagenic call [6]: inactive; negative
mutagenic call (Test System: AMES SALMONELLA TYPHIMURIUM, Strain/Indicator: TA97, Metabolic Activation: RAT, LIVER, S-9, AROCLOR 1254 (10 OR 30%), Method: PREINCUBATION): inactive; negative
mutagenic call (Test System: AMES SALMONELLA TYPHIMURIUM, Strain/Indicator: TA98, Metabolic Activation: HAMSTER, LIVER, S-9, AROCLOR 1254 (10 OR 30%), Method: PREINCUBATION): inactive; negative
mutagenic call [4]: inactive; negative
mutagenic call (Test System: AMES SALMONELLA TYPHIMURIUM, Strain/Indicator: TA98, Metabolic Activation: RAT, LIVER, S-9, AROCLOR 1254 (10 OR 30%), Method: PREINCUBATION): inactive; negative
mutagenic call (Test System: AMES SALMONELLA TYPHIMURIUM, Strain/Indicator: TA98, Metabolic Activation: RAT, LIVER, S-9, PHENOBARBITAL, Method: PREINCUBATION): inactive; negative
mutagenic call (Test System: AMES SALMONELLA TYPHIMURIUM, Strain/Indicator: TA100, Metabolic Activation: HAMSTER, LIVER, S-9, AROCLOR 1254 (10 OR 30%), Method: PREINCUBATION): inactive; negative
mutagenic call [5]: inactive; negative
mutagenic call (Test System: AMES SALMONELLA TYPHIMURIUM, Strain/Indicator: TA100, Metabolic Activation: RAT, LIVER, S-9, AROCLOR 1254 (10 OR 30%), Method: PREINCUBATION): inactive; negative
mutagenic call (Test System: AMES SALMONELLA TYPHIMURIUM, Strain/Indicator: TA100, Metabolic Activation: RAT, LIVER, S-9, PHENOBARBITAL, Method: PREINCUBATION): inactive; negative
mutagenic call (Test System: AMES SALMONELLA TYPHIMURIUM, Strain/Indicator: TA1535, Metabolic Activation: HAMSTER, LIVER, S-9, AROCLOR 1254 (10 OR 30%), Method: PREINCUBATION): inactive; negative
mutagenic call [7]: inactive; negative
mutagenic call (Test System: AMES SALMONELLA TYPHIMURIUM, Strain/Indicator: TA1535, Metabolic Activation: RAT, LIVER, S-9, AROCLOR 1254 (10 OR 30%), Method: PREINCUBATION): inactive; negative
mutagenic call (Test System: Ames Salmonella typhimurium, Strain/Indicator: TA102, Metabolic Activation: None, Method: Preincubation): inactive; negative
mutagenic call (Test System: Ames Salmonella typhimurium, Strain/Indicator: TA102, Metabolic Activation: Rat, Liver, S9, Aroclor 1254, Method: Preincubation): inactive; negative
mutagenic call (Test System: Ames Salmonella typhimurium, Strain/Indicator: TA104, Metabolic Activation: None, Method: Preincubation): inactive; negative
mutagenic call (Test System: Ames Salmonella typhimurium, Strain/Indicator: TA104, Metabolic Activation: Rat, Liver, S9, Aroclor 1254, Method: Preincubation): inactive; negative

COc1ccc([N+](=O)[O-])c2c(NCCCN(C)C)c3ccccc3nc12
mutagenic call [1]: active; positive
mutagenic call [2]: inactive; negative

O=[N+]([O-])c1cccc2cn[nH]c12
mutagenic call [1]: active; positive

CC(=O)Nc1cccc(N)c1
mutagenic call (Test System: AMES SALMONELLA TYPHIMURIUM, Strain/Indicator: TA97, Metabolic Activation: HAMSTER, LIVER, S-9, AROCLOR 1254 (10%), Method: PREINCUBATION): active; positive
mutagenic call [6]: inactive; negative
mutagenic call (Test System: AMES SALMONELLA TYPHIMURIUM, Strain/Indicator: TA97, Metabolic Activation: RAT, LIVER, S-9, AROCLOR 1254 (10%), Method: PREINCUBATION): active; positive
mutagenic call (Test System: AMES SALMONELLA TYPHIMURIUM, Strain/Indicator: TA98, Metabolic Activation: HAMSTER, LIVER, S-9, AROCLOR 1254 (10%), Method: PREINCUBATION): active; positive
mutagenic call [4]: inactive; negative
mutagenic call (Test System: AMES SALMONELLA TYPHIMURIUM, Strain/Indicator: TA98, Metabolic Activation: RAT, LIVER, S-9, AROCLOR 1254 (10%), Method: PREINCUBATION): active; positive
mutagenic call (Test System: AMES SALMONELLA TYPHIMURIUM, Strain/Indicator: TA100, Metabolic Activation: HAMSTER, LIVER, S-9, AROCLOR 1254 (10%), Method: PREINCUBATION): active; positive
mutagenic call [5]: inactive; negative
mutagenic call (Test System: AMES SALMONELLA TYPHIMURIUM, Strain/Indicator: TA100, Metabolic Activation: RAT, LIVER, S-9, AROCLOR 1254 (10%), Method: PREINCUBATION): inactive; negative
mutagenic call (Test System: AMES SALMONELLA TYPHIMURIUM, Strain/Indicator: TA1535, Metabolic Activation: HAMSTER, LIVER, S-9, AROCLOR 1254 (10%), Method: PREINCUBATION): inactive; negative
mutagenic call [7]: inactive; negative
mutagenic call (Test System: AMES SALMONELLA TYPHIMURIUM, Strain/Indicator: TA1535, Metabolic Activation: RAT, LIVER, S-9, AROCLOR 1254 (10%), Method: PREINCUBATION): inactive; negative

Fc1ccc2c3c(cccc13)-c1cc3ccccc3cc1-2
mutagenic call [3]: active; positive
